Where two headings read alike, the source gives them in different places.
Legend:
Cyclooxygenase-2 (Cox-2) = molecular target: T1, Cyclooxygenase-2 (Cox-2) (Ovis aries, UniProt P79208); assay: Colorimetric Cox inhibitor screening assay (Cayman), Cox-2; format: biochemical
T1 construct: purchased Cayman Chemical Company 760111
T1 sequence (P79208 17-603): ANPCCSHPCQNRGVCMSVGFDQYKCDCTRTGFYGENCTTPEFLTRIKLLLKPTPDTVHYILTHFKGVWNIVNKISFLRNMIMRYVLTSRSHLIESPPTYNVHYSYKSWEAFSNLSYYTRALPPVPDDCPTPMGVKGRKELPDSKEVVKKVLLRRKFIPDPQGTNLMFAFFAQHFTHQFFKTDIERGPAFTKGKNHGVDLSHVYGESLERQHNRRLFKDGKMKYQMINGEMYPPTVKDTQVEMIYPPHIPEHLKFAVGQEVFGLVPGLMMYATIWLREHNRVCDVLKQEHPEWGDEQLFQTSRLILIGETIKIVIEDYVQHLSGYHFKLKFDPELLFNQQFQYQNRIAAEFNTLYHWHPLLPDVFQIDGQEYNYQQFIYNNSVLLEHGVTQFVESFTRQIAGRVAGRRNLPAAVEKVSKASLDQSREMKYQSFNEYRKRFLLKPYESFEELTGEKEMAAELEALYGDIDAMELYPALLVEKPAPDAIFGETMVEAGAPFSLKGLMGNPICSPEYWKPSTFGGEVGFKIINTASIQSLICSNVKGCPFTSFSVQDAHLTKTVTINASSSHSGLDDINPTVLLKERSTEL
Protocol: (§1) Determination of the Effect of the Compounds According to the Invention on Cyclooxygenase-1 and Cyclooxygenase-2 (Cox-1, Cox-2)
(§2) Inhibition of Cox-1 and Cox-2 was determined using the Colorimetric Cox inhibitor screening assay provided by Cayman Chemical Company, Ann Arbor, Mich., USA. (Cat. No. 760111) according to manufacturer's instructions.

Cyclooxygenase-1 (Cox-1) = molecular target: T2, Cyclooxygenase-1 (Cox-1) (Ovis aries, UniProt P05979); assay: Colorimetric Cox inhibitor screening assay (Cayman), Cox-1; format: biochemical
T2 construct: purchased Cayman Chemical Company 760111
T2 sequence (P05979 25-600): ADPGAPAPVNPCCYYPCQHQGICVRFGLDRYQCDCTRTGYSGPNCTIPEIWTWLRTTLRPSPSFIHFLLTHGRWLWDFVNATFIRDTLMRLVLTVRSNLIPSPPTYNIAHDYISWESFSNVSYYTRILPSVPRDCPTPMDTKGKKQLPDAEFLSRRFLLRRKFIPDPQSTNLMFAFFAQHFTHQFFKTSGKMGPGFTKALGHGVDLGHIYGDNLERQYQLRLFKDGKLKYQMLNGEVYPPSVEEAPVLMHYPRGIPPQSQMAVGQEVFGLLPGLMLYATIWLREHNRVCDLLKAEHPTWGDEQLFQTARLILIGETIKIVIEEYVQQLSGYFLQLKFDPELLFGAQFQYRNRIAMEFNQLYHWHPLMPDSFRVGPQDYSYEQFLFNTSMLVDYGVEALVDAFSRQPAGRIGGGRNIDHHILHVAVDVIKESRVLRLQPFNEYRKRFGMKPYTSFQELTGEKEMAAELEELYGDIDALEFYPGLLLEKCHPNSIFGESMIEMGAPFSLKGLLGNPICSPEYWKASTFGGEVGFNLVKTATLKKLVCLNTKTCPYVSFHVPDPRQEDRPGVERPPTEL
Protocol: as §1, §2

γ-secretase = molecular target: T3, γ-secretase (Homo sapiens, UniProt P49768); assay: WTAPP cell assay Aβ42 (γ-secretase-modulating activity, SKNBE2 cells carrying APP 695 wild type); format: cell-based; details: for EC50: SKNBE2 cells carrying APP 695 wild type
T3 construct: endogenous in cells; host or cells: SKNBE2 cells carrying APP 695 wild type
Protocol: Screening of the Compounds of the Invention for γ-Secretase-Modulating Activity
Screening was carried out using SKNBE2 cells carrying the APP 695-wild type, grown in DMEM/NUT-mix F12 (HAM) provided by Gibco (cat no. 31330-38) containing 5% Serum/Fe supplemented with 1% non-essential amino acids.
Cells were grown to near confluency.
The screening was performed using the assay as described in Citron et al (1997) Nature Medicine 3: 67.

[1] = Brain and plasma compound concentration in mouse after oral dose; format: in vivo; details: 30 mg/kg, 30 mpk po
Protocol: (§3) A typical protocol for measuring Aβ42 lowering in vivo is shown but it is only one of many variations that could be used to optimize the levels of detectable Aβ. For example, Aβ42 lowering compounds as free acids or sodium salts were formulated in 5% of solutol in water or 20% hydroxypropyl β cyclodextrin. The Aβ42 lowering agents are administered as a single oral dose or by any acceptable route of administration e.g., three to four hours before sacrifice, determined empirically, and analysis or alternatively could be given over a course of days and the animals sacrificed three to four hours after the final dose is given.
(§4) The mice are anaesthetized with a mixture of Ketalar (Ketamin), Rompun (Xylazin 2%) and Atropin (2:1:1) and flushed trans-cardially with physiological serum at 4° C. Blood is collected at sacrifice. The blood collection is performed via a heart puncture during anesthesia in EDTA treated collection tubes. Blood is centrifuged at 4000 g for 5 minutes at 4° C. and the plasma recovered and flash frozen for later analysis. The brain is removed from the cranium and hindbrain and forebrain are separated with a cut in the coronal/frontal plane. The cerebellum is removed and retained for quantitative analysis of test compound levels. The forebrain is divided evenly into left and right hemisphere by using a midline sagital cut.
Oral dose 30 mg/kg at 4 hr Time Point

Aβ42 = assay: In vivo mouse Aβ42 lowering (brain Aβ42 ELISA); details: oral dose 30 mg/kg, 4 hr time point
Text: To determine whether acute administration of an Aβ42 lowering agent would reduce Aβ42 levels in vivo, non-transgenic rodents, e.g. mice or rats were used. Alternatively, two to three month old Tg2576 mice expressing APP695 containing the “Swedish” variant can be used or a transgenic mouse model developed by Dr. Fred Van Leuven (K. U. Leuven, Belgium) and co-workers, with neuron-specific expression of a clinical mutant of the human amyloid precursor protein [V717I] (Moechars et al., 1999 J. Biol. Chem. 274, 6483). Young transgenic mice have high levels of Aβ in the brain but no detectable Aβ deposition. At approximately 6-8 months of age , the transgenic mice start to display spontaneous, progressive accumulation of β-amyloid (Aβ) in the brain, eventually resulting in amyloid plaques within the subiculum, hippocampus and cortex. Animals treated with the Aβ42 lowering agent will be examined and compared to those untreated or treated with vehicle and brain levels of soluble Aβ42 and total Aβ would be quantitated by standard techniques, for example, using ELISA. Treatment periods may vary from hours to days and will be adjusted based on the results of the Aβ42 lowering once a time course of onset of effect can be established.
as §3, §4
Both hemispheres are immediately immersed in liquid nitrogen and stored at −70° C. until homogenization for biochemical assays. […]

[2] = brain, read-out: Brain concentration @ 30 mpk po (4 hr)
[3] = plasma, read-out: Plasma concentration @ 30 mpk po (4 hr)

| inhibition at 100 µM (Cyclooxygenase-2 (Cox-2)) | inhibition at 100 µM (Cyclooxygenase-1 (Cox-1)) | EC50 (γ-secretase) | concentration at 4 h [1, 2] | concentration at 4 h [1, 3] | IC50 (γ-secretase; comparison compound, read-out: IC50 in the above WTAPP cell assay) | SMILES | In vivo mouse Aβ42 efficacy @ 30 mpk (4 hr) inhibition (Aβ42) |
| --- | --- | --- | --- | --- | --- | --- | --- |
| < 50% | < 50% | 525 nM | 6.9 ± 2.3 µM | 6.9 ± 12.2 µM | – | CC(C)C[C@@H](C(=O)O)c1cc(OCc2cc(F)cc(F)c2)cc(-c2ccc(C(F)(F)F)cc2)c1 [Compound 1, (R) 2-[5-(3,5-Difluoro-benzyloxy)-4′-trifluoromethyl-biphenyl-3-yl]-4-methyl-pentanoic acid] | 50% |
| – | – | 1120 nM | 11.1 ± 2.8 µM | 11.1 ± 8.9 µM | – | CC(C)C[C@H](C(=O)O)c1cc(OCc2cc(F)cc(F)c2)cc(-c2ccc(C(F)(F)F)cc2)c1 [Compound 2, (S)-2-[5-(3,5-Difluoro-benzyloxy)-4′-trifluoromethyl-biphenyl-3-yl]-4-methyl-pentanoic acid] | 45% |
| – | – | 316 nM | 5.1 ± 1.1 µM | 5.1 ± 2.8 µM | – | CC(C)C[C@@H](C(=O)O)c1cc(OCc2ccc(F)cc2C(F)(F)F)cc(-c2ccc(C(F)(F)F)cc2)c1 [Compound 3, (R)-2-[5-(4-fluoro-2-trifluoromethyl-benzyloxy)-4′-trifluoromethyl-biphenyl-3-yl]-4-methyl-pentanoic acid] | 25% |
| – | – | 190 nM | 6.5 ± 1.5 µM | 6.5 ± 6.3 µM | – | CC(C)CC(C(=O)O)c1cc(OCc2cc(F)cc(F)c2)cc(-c2ccc(Cl)c(C(F)(F)F)c2)c1 (stereo not shown) [Compound 4, 2-[4′-Chloro-5-(3,5-difluoro-2-benzyloxy)-3′-trifluoromethyl-biphenyl-3-yl]-4-methyl-pentanoic acid] | 42% |
| – | – | – | – | – | 2500 nM | CCC[C@H](C(=O)O)c1cc(OCc2ccccc2)cc(-c2ccc(C(F)(F)F)cc2)c1 [reference compound] | – |
